Test results as given in paper PMC9023544, “Ketone-selenoesters as potential anticancer and multidrug resistance modulation agents in 2D and 3D ovarian and breast cancer in vitro models” (Scientific Reports, 2022).

Legend:
[1] = tested on: HOC (human parental ovarian adenocarcinoma, A2780); test: Cytotoxic activity, 2D, resazurin, 72 h; format: cell-based; conditions: for IC50: Homo sapiens, A2780, 72 h, read-out: HOC IC50; for SI HEK293/HOC: IC50 HEK293 / IC50 HOC
Description: The cytotoxic potential of selenoesters was tested on several cancer cell lines—HOC (human parental ovarian adenocarcinoma, HOC, A2780, Sigma-Aldrich), HOC/ADR (sub-line resistant to Adriamycin, A2780/ADR, Sigma-Aldrich), MCF-7 (human breast adenocarcinoma, ATCC®, HTB-22TM), MCF-7/PAX (resistant sub-line established by gradual adaptation of parental cells to increased concentration of paclitaxel; kindly provided by Division of Cell and Molecular Biology, Third Faculty of Medicine, Charles University, Czech Republic) and on one non-cancerous cell line—HEK293 (human embryonic kidney cell line, Leibniz Institute, DSMZ-German Collection of Microorganisms and Cell Cultures GmbH). All mentioned cell lines were authenticated using short tandem repeat (STR) profiling. Cell lines were cultivated in DMEM medium (10% FBS, 1× antibiotic antimycotic solution), except for HEK293 cell line which was cultivated without antibiotics. In case of the resistant cell lines, the medium was supplemented with a required concentration of cytostatics to maintain resistance (HOC/ADR—100 nM Adriamycin; MCF-7/PAX—300 nM paclitaxel). All cells were cultivated in a CO2 incubator (5% CO2, 37 °C, Thermo Fisher Scientific).
For the experiment, the cells at passage number 5–20 were seeded at a 1 × 10^5 cells/mL concentration into 96-well plates to 100 µL final volume. The final concentration range of the compounds was 0.63–20 µM. After an incubation of 72 h, the plates were washed 1× with PBS and resazurin solution (0.03 mg/mL in 1× PBS) was added. After 1 h of incubation, the fluorescence signal was recorded (ex./em. 560/590 nm).
The selectivity index (SI) was determined as the ratio of IC50 value for the non-cancerous cells to IC50 for the cancer cell line. For resistant cell lines, the collateral sensitivity (CS) was calculated as the ratio of IC50 value in sensitive tumour cells to IC50 in the resistant cancer cell line. In both cases, the selectivity is considered as: (1) strongly selective when SI or CS value is above 6, (2) moderately selective when SI or CS is between 3 and 6, (3) slightly selective when SI or CS is between 1 and 3 and (4) non-selective when SI or CS is less than 1[23].

[2] = tested on: ABC superfamily genes in HOC/ADR; test: Expression of genes encoding ABC transporters, qPCR; format: cell-based, human; conditions: IC10 alone, 48 h
Description: Based on the fact that compounds K3, K4, K7 sensitized drug-resistant cell lines (HOC/ADR, MCF-7/PAX) and modulated ATPase activity of one from the ABC proteins (P-gp), we verified the potential of these compounds to affect ABC superfamily gene expression. The ovarian and breast cancer cell lines (parental cells and resistant sub-line) were analysed for the expression profile of genes encoding the ABC proteins in the previous works[18]–[20]. […] After 48 h, the effect of compounds alone or in the combination with cytostatics was observed (Supplementary Tables 1, Table 2).
To determine the impact of selected compounds on the expression of genes encoding ABC transporter, HOC/ADR and MCF-7/PAX cells were seeded for 24 h into 5 cm Petri dishes with DMEM medium at the cell density 1 × 10^5 cells/mL. Afterwards, the cells were washed 1× with PBS and new fresh DMEM supplemented with K3, K4, and K7 (in concentration corresponding to their IC10 value) alone or combined with cytostatics (Adriamycin or paclitaxel in concentration corresponding to their IC25 value) was added. In the experiment, positive and negative control was also included (positive—untreated cells, negative—cells treated only with cytostatics). After 48 h exposure, the cells were washed once with PBS and released from the surface by using the above-mentioned trypsin–EDTA procedure. The enzyme reaction was stopped by medium addition and the cells were centrifuged (3200×g; 10 min, 4 °C). The supernatants were removed and before the next centrifugation, the pellets were resuspended in 1.5 mL of cooled PBS (5400×g; 10 min, 4 °C). After the second washing step, the cells were centrifuged another time (10,000×g; 3 min, 4 °C). Subsequently, 1 mL of Trizol (Invitrogen) was added to the pellets and the compounds were stored − 80 °C.
The RNA concentration of selenoester treated samples was determined using QuantiT RiboGreen RNA Assay Kit and Infinite M200 plate reader (Tecan, Männedor, Switzerland). The cDNA was synthesized from 0.5 µg of total RNA by RevertAid First Strand Synthesis cDNA Kit (MBI Fermentas, Vilnius, Lithuania). To determine the quality of cDNA, the ubiquitin C gene fragment was amplified. The experiment was performed in 384-well block by using ViiA7 Real-Time PCR System (Life Technologies, Camarillo, California, United States). A master mix contained 0.25 µL of 20× TaqMan Gene Expression Assay, 1 µL of 5× HotFIREPol Probe qPCR Mix Plus, 1.75 µL of RNase free water and 2 µL of 8× diluted cDNA. The final reaction volume was 5 µL. The PCR parameters were as follows: initial hold (50 °C for 2 min), denaturation (95 °C for 10 min), followed by 45 cycles (denaturation at 95 °C for 15 s, annealing at 60 °C for 1 min). After each cycle, the fluorescent signal was determined. For each compound, duplicates were analysed and those with a standard deviation higher than 0.5 Ct were re-analysed. A quantitate real-time PCR was followed by MIQE guidelines. To compare the relative transcript levels of genes, the software REST 2009 (Qiagen, Hilden, Germany) was used.
Table 1. Effect of selenoesters on the expression of genes of the ABC superfamily in Adriamycin-resistant ovarian carcinoma cell line (HOC/ADR).
Gene expression of ABC transporters were estimated using comercial predesigned Taqman Gene Expression Assays (Life technologies). TaqMan Gene Expression Assays are based on 5´ nuclease chemistry, and each assay contains the primer and probe set for target of interest. Taqman assays IDs and GenBank Accession numbers of reference sequencies identifying their location and amplicon lengths are included in […]. * Relative transcript levels (P-value ) in treated and non-treated cancer cell lines were compared using REST 2009 software.

CC(=O)C[Se]C(=O)c1ccc(Br)cc1 [K3]
IC50 [1]: 1800 nM | SI HEK293/HOC [1]: 1.3 ± 0.0 | ABCA1 Expression Difference [2]: 0.968 | ABCA2 Expression Difference [2]: 0.997 | ABCA3 Expression Difference [2]: 0.838 | ABCA3 Treated vs. Untr. [2]: DOWN | ABCA5 Expression Difference [2]: 2.693 | ABCA7 Expression Difference [2]: 0.322 | ABCA7 Treated vs. Untr. [2]: DOWN | ABCB1 Expression Difference [2]: 3.825 | ABCB2 Expression Difference [2]: 0.315 | ABCB2 Treated vs. Untr. [2]: DOWN | ABCB3 Expression Difference [2]: 4.904 | ABCB6 Expression Difference [2]: 4.860 | ABCB8 Expression Difference [2]: 2.659 | ABCB9 Expression Difference [2]: 4.156 | ABCB10 Expression Difference [2]: 7.275 | ABCC1 Expression Difference [2]: 6.415 | ABCC2 Expression Difference [2]: 2.907 | ABCC5 Expression Difference [2]: 2.301 | ABCC10 Expression Difference [2]: 1.562 | ABCD1 Expression Difference [2]: 0.665 | ABCD1 Treated vs. Untr. [2]: DOWN | ABCD2 Expression Difference [2]: 1.845 | ABCD3 Expression Difference [2]: 2.960 | ABCD4 Expression Difference [2]: 2.760 | ABCE1 Expression Difference [2]: 7.298 | ABCF1 Expression Difference [2]: 1.638 | ABCF2 Expression Difference [2]: 2.868 | ABCF3 Expression Difference [2]: 2.163 | ABCG1 Expression Difference [2]: 0.932 | ABCG2 Expression Difference [2]: 1.869 | ABCG4 Expression Difference [2]: 0.755 | ABCG4 Treated vs. Untr. [2]: DOWN

CC(=O)C[Se]C(=O)c1ccccc1C(F)(F)F [K4]
IC50 [1]: 2200 ± 100 nM | SI HEK293/HOC [1]: 2.5 ± 0.2 | ABCA1 Expression Difference [2]: 1.347 | ABCA2 Expression Difference [2]: 0.948 | ABCA3 Expression Difference [2]: 0.832 | ABCA3 Treated vs. Untr. [2]: DOWN | ABCA5 Expression Difference [2]: 2.334 | ABCA7 Expression Difference [2]: 0.359 | ABCA7 Treated vs. Untr. [2]: DOWN | ABCB1 Expression Difference [2]: 3.696 | ABCB2 Expression Difference [2]: 0.435 | ABCB2 Treated vs. Untr. [2]: DOWN | ABCB3 Expression Difference [2]: 4.568 | ABCB6 Expression Difference [2]: 5.132 | ABCB7 Expression Difference [2]: 7.250 | ABCB8 Expression Difference [2]: 3.526 | ABCB9 Expression Difference [2]: 4.981 | ABCB10 Expression Difference [2]: 8.165 | ABCC1 Expression Difference [2]: 8.545 | ABCC2 Expression Difference [2]: 3.272 | ABCC5 Expression Difference [2]: 2.336 | ABCC10 Expression Difference [2]: 1.545 | ABCD1 Expression Difference [2]: 0.796 | ABCD1 Treated vs. Untr. [2]: DOWN | ABCD2 Expression Difference [2]: 4.885 | ABCD3 Expression Difference [2]: 3.302 | ABCD4 Expression Difference [2]: 2.681 | ABCE1 Expression Difference [2]: 6.945 | ABCF1 Expression Difference [2]: 1.998 | ABCF2 Expression Difference [2]: 3.096 | ABCF3 Expression Difference [2]: 2.262 | ABCG1 Expression Difference [2]: 1.213 | ABCG2 Expression Difference [2]: 1.302 | ABCG4 Expression Difference [2]: 0.776 | ABCG4 Treated vs. Untr. [2]: DOWN

CC(=O)C[Se]C(=O)c1ccc(C(C)(C)C)cc1 [K7]
IC50 [1]: 1100 ± 100 nM | SI HEK293/HOC [1]: 1.7 ± 0.2 | ABCA1 Expression Difference [2]: 1.104 | ABCA2 Expression Difference [2]: 1.775 | ABCA3 Expression Difference [2]: 1.018 | ABCA5 Expression Difference [2]: 1.970 | ABCA7 Expression Difference [2]: 0.341 | ABCA7 Treated vs. Untr. [2]: DOWN | ABCB1 Expression Difference [2]: 5.009 | ABCB2 Expression Difference [2]: 0.591 | ABCB2 Treated vs. Untr. [2]: DOWN | ABCB3 Expression Difference [2]: 3.406 | ABCB6 Expression Difference [2]: 4.646 | ABCB7 Expression Difference [2]: 7.145 | ABCB8 Expression Difference [2]: 3.581 | ABCB9 Expression Difference [2]: 4.530 | ABCB10 Expression Difference [2]: 7.288 | ABCC1 Expression Difference [2]: 7.835 | ABCC2 Expression Difference [2]: 3.865 | ABCC5 Expression Difference [2]: 3.327 | ABCC10 Expression Difference [2]: 1.899 | ABCD1 Expression Difference [2]: 0.898 | ABCD1 Treated vs. Untr. [2]: DOWN | ABCD2 Expression Difference [2]: 0.638 | ABCD2 Treated vs. Untr. [2]: DOWN | ABCD3 Expression Difference [2]: 4.007 | ABCD4 Expression Difference [2]: 3.541 | ABCE1 Expression Difference [2]: 10.154 | ABCF1 Expression Difference [2]: 2.212 | ABCF2 Expression Difference [2]: 4.029 | ABCF3 Expression Difference [2]: 3.001 | ABCG1 Expression Difference [2]: 1.059 | ABCG2 Expression Difference [2]: 1.468 | ABCG4 Expression Difference [2]: 1.431
